Measured values: patent US20230250060A1 (IFM Due, Inc., priority 2022, published 2023)

Target: T1, STING (Homo sapiens, UniProt Q86WV6, G230A/H232R/R293Q/R71H)
T1 construct: host or cells: THP1-Dual KO-IFNAR2 cells
Assay: STING reporter assay (luciferase) in THP1-Dual KO-IFNAR2 cells stimulated with 2′3′cGAMP
Format: cell-based
Settings: 2′3′cGAMP 15 μM final, 24 h, luciferase reporter activity, read-out: Pharmaron, THP1_IFNAR2 STING 24 h Luci Normalized: GeoMean EC50
Protocol: STING pathway activation by the compounds described herein was measured using TTIP1-Dual™ cells (KO-IFNAR2).
TTIP1-Dual™ KO-IFNAR2 Cells (obtained from invivogen) were maintained in RPMI, 10% FCS, 5 ml P/S, 2 mM L-glut, 10 mM Hepes, and 1 mM sodium pyruvate. Compounds were spotted in empty 384 well tissue culture plates (Greiner 781182) by Echo for a final concentration of 0.0017-100 μM. Cells were plated into the TC plates at 40 μL per well, 2×10E6 cells/mL. For activation with STING ligand, 2′3′cGAMP (MW 718.38, obtained from Invivogen), was prepared in Optimem media.
The following solutions were prepared for each 1×384 plate: • Solution A: 2 mL Optimem with one of the following stimuli: • […] • Solution B: 2 mL Optimem with […] Lipofectamine 2000→Incubate 5 min at RT
2 mL of solution A and 2 ml Solution B was mixed and incubated for 20 min at room temperature (RT). 20 μL of transfection solution (A+B) was added on top of the plated cells, with a final 2′3′cGAMP concentration of 15 μM. The plates were then centrifuged immediately at 340 g for 1 minute, after which they were incubated at 37° C., 5% CO2, >98% humidity for 24 h. Luciferase reporter activity was then measured. EC50 values were calculated by using standard methods known in the art.
Luciferase reporter assay: 10 μL of supernatant from the assay was transferred to white 384-plate with flat bottom and squared wells. One pouch of QUANTI-Luc™ Plus was dissolved in 25 mL of water. 100 μL of QLC Stabilizer per 25 mL of QUANTI-Luc™ Plus solution was added. 50 μL of QUANTI-Luc™ Plus/QLC solution per well was then added. Luminescence was measured on a Platereader (e.g., Spectramax I3X (Molecular Devices GF3637001)).
Luciferase reporter activity was then measured. EC50 values were calculated by using standard methods known in the art.

T1 sequence (Q86WV6 whole entry R71H/G230A/H232R/R293Q): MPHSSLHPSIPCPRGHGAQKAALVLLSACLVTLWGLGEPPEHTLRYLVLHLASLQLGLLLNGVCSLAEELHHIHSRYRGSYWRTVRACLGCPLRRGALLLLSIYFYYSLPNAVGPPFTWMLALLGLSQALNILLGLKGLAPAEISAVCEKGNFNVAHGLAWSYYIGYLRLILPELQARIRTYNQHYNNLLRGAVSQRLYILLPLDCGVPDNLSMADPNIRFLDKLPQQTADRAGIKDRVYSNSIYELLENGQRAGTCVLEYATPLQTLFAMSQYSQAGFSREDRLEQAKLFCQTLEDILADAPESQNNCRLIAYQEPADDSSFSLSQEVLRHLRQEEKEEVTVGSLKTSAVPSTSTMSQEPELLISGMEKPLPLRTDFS

O=C(Nc1c[nH]c2ccc(OCC[C@@H]3C[C@@H]4CN(CC(F)(F)F)C[C@@H]4C3)cc12)c1ccccc1 [Compound 224, N-(5-(2-((3aR,5r,6aS)-2-(2,2,2-trifluoroethyl)octahydrocyclopenta[c]pyrrol-5-yl)ethoxy)-1H-indol-3-yl)benzamide]
EC50: 200 to 1000 nM

O=C(CC1CC1)Nc1c[nH]c2ccc(CCOc3ccc(C(F)(F)F)cc3)cc12 [Compound 197, 2-cyclopropyl-N-(5-(2-(4-(trifluoromethyl)phenoxy)ethyl)-1H-indol-3-yl)acetamide]
EC50: 200 to 1000 nM

O=C(Nc1c[nH]c2ccc(OCC[C@@H]3C[C@@H]4CN(CC(F)(F)F)C[C@@H]4C3)cc12)c1cncs1 [Compound 190, N-(5-(2-((3aR,5r,6aS)-2-(2,2,2-trifluoroethyl)octahydrocyclopenta[c]pyrrol-5-yl)ethoxy)-1H-indol-3-yl)thiazole-5-carboxamide]
EC50: 200 to 1000 nM

O=C(Nc1c[nH]c2ccc(CCOc3ccc(C(F)(F)F)cc3)cc12)c1cncs1 [Compound 120, N-(5-(2-(4-(trifluoromethyl)phenoxy)ethyl)-1H-indol-3-yl)thiazole-5-carboxamide]
EC50: 200 to 1000 nM

Cn1cc(C(=O)Nc2c[nH]c3ccc(O[C@H]4C[C@H](c5ccc(C(F)(F)F)nc5)C4)cc23)nn1 [Compound 219, 1-methyl-N-(5-(trans-3-(6-(trifluoromethyl)pyridin-3-yl)cyclobutoxy)-1H-indol-3-yl)-1H-1,2,3-triazole-4-carboxamide]
EC50: 200 to 1000 nM

N#CC12CC(C(=O)Nc3c[nH]c4ccc(COCc5ccc(C(F)(F)F)cc5)cc34)(C1)C2 [Compound 129, 3-cyano-N-(5-(((4-(trifluoromethyl)benzyl)oxy)methyl)-1H-indol-3-yl)bicyclo[1.1.1]pentane-1-carboxamide]
EC50: 200 to 1000 nM

O=C(Nc1c[nH]c2ccc(OCc3ccc(C(F)(F)F)cc3)cc12)C1CC12CCC2 (stereo not shown) [Compound 236, N-(5-{[4-(trifluoromethyl)phenyl]methoxy}-1H-indol-3-yl)spiro[2.3]hexane-1-carboxamide]
EC50: 40 to 200 nM

O=C(Nc1c[nH]c2ccc(O[C@H]3C[C@@H](c4ccc(C(F)(F)F)cc4)C3)cc12)c1cccnc1 [Compound 169, N-(5-((1s,3s)-3-(4-(trifluoromethyl)phenyl)cyclobutoxy)-1H-indol-3-yl)nicotinamide]
EC50: 40 to 200 nM

O=C(Nc1c[nH]c2ccc(O[C@H]3C[C@@H](c4ccc(C(F)(F)F)cc4)C3)cc12)c1cscn1 [Compound 192, N-(5-((1s,3s)-3-(4-(trifluoromethyl)phenyl)cyclobutoxy)-1H-indol-3-yl)thiazole-4-carboxamide]
EC50: 200 to 1000 nM

O=C(Nc1c[nH]c2ccc(OCC[C@@H]3C[C@@H]4CN(CC(F)(F)F)C[C@@H]4C3)cc12)c1ccn[nH]1 [Compound 180, N-(5-(2-((3aR,5r,6aS)-2-(2,2,2-trifluoroethyl)octahydrocyclopenta[c]pyrrol-5-yl)ethoxy)-1H-indol-3-yl)-1H-pyrazole-5-carboxamide]
EC50: 200 to 1000 nM

O=C(Nc1c[nH]c2ccc(OCc3ccc(C(F)(F)F)cc3)cc12)c1ccccc1 [Compound 218, N-(5-((4-(trifluoromethyl)benzyl)oxy)-1H-indol-3-yl)benzamide]
EC50: 200 to 1000 nM

O=C(Nc1c[nH]c2ccc(OCc3ccc(C(F)(F)F)cc3)cc12)c1ccn[nH]1 [Compound 137, N-(5-((4-(trifluoromethyl)benzyl)oxy)-1H-indol-3-yl)-1H-pyrazole-5-carboxamide]
EC50: 200 to 1000 nM

O=C(Nc1c[nH]c2ccc(CCOc3ccc(C(F)(F)F)cc3)cc12)C12CC(C1)C2 [Compound 135]
EC50: 200 to 1000 nM

O=C(Nc1c[nH]c2ccc(OCCc3ccc(C(F)(F)F)cc3)cc12)c1cncs1 [Compound 113, N-(5-(4-(trifluoromethyl)phenethoxy)-1H-indol-3-yl)thiazole-5-carboxamide]
EC50: 200 to 1000 nM

O=C(Nc1c[nH]c2ccc(O[C@H]3C[C@H](c4ccc(C(F)(F)F)cc4)C3)cc12)C1CC2(CC2)C1 [Compound 229, N-{5-[(1R,3R)-3-[4-(trifluoromethyl)phenyl]cyclobutoxy]-1H-indol-3-yl}spiro[2.3]hexane-5-carboxamide]
EC50: 40 to 200 nM

Cn1nccc1C(=O)Nc1c[nH]c2ccc(OCCc3ccc(C(F)(F)F)cc3)cc12 [Compound 203, 1-methyl-N-(5-(4-(trifluoromethyl)phenethoxy)-1H-indol-3-yl)-1H-pyrazole-5-carboxamide]
EC50: 200 to 1000 nM

O=C(Nc1c[nH]c2ccc(OCc3ccc(C(F)(F)F)cc3)cc12)c1ncccc1F [Compound 152, 3-fluoro-N-(5-((4-(trifluoromethyl)benzyl)oxy)-1H-indol-3-yl)picolinamide]
EC50: 200 to 1000 nM

CC12CC(C(=O)Nc3c[nH]c4ccc(O[C@H]5C[C@@H](c6ccc(C(F)(F)F)cc6)C5)cc34)(C1)C2 [Compound 171, 3-methyl-N-(5-((1s,3s)-3-(4-(trifluoromethyl)phenyl)cyclobutoxy)-1H-indol-3-yl)bicyclo[1.1.1]pentane-1-carboxamide]
EC50: 200 to 1000 nM

O=C(Nc1c[nH]c2ccc(CCOc3ccc(C(F)(F)F)cc3)cc12)c1nccs1 [Compound 201, N-(5-(2-(4-(trifluoromethyl)phenoxy)ethyl)-1H-indol-3-yl)thiazole-2-carboxamide]
EC50: 200 to 1000 nM

O=C(Nc1c[nH]c2ccc(O[C@H]3C[C@H](c4ccc(C(F)(F)F)cc4)C3)cc12)c1cncs1 [Compound 235, N-{5-[(1R,3R)-3-[4-(trifluoromethyl)phenyl]cyclobutoxy]-1H-indol-3-yl}-1,3-thiazole-5-carboxamide]
EC50: 200 to 1000 nM

O=C(Nc1c[nH]c2ccc(OCCc3ccc(C(F)(F)F)cc3)cc12)c1ncccc1F [Compound 109, 3-fluoro-N-(5-(4-(trifluoromethyl)phenethoxy)-1H-indol-3-yl)picolinamide]
EC50: 200 to 1000 nM

Cc1oncc1C(=O)Nc1c[nH]c2ccc(OCC[C@@H]3C[C@@H]4CN(CC(F)(F)F)C[C@@H]4C3)cc12 [Compound 159, 5-methyl-N-(5-(2-((3aR,5r,6aS)-2-(2,2,2-trifluoroethyl)octahydrocyclopenta[c]pyrrol-5-yl)ethoxy)-1H-indol-3-yl)isoxazole-4-carboxamide]
EC50: 5000 to 100000 nM

O=C(Nc1c[nH]c2ccc(CCOc3ccc(C(F)(F)F)cc3)cc12)c1ccncc1 [Compound 194, N-(5-(2-(4-(trifluoromethyl)phenoxy)ethyl)-1H-indol-3-yl)isonicotinamide]
EC50: 200 to 1000 nM

O=C(Nc1c[nH]c2ccc(CCOc3ccc(C(F)(F)F)cc3)cc12)C12CC(F)(C1)C2 [Compound 116, 3-fluoro-N-(5-(2-(4-(trifluoromethyl)phenoxy)ethyl)-1H-indol-3-yl)bicyclo[1.1.1]pentane-1-carboxamide]
EC50: 200 to 1000 nM

O=C(Nc1c[nH]c2ccc(OCCc3ccc(C(F)(F)F)cc3)cc12)c1cccnc1 [Compound 123, N-(5-(4-(trifluoromethyl)phenethoxy)-1H-indol-3-yl)nicotinamide]
EC50: 200 to 1000 nM

O=C(Nc1c[nH]c2ccc(OCc3ccc(C(F)(F)F)cc3)cc12)C1CC2(CC2)C1 [Compound 221, N-(5-{[4-(trifluoromethyl)phenyl]methoxy}-1H-indol-3-yl)spiro[2.3]hexane-5-carboxamide]
EC50: 200 to 1000 nM

Cc1noc(C)c1C(=O)Nc1c[nH]c2ccc(O[C@H]3C[C@@H](c4ccc(C(F)(F)F)cc4)C3)cc12 [Compound 177, 3,5-dimethyl-N-(5-((1s,3s)-3-(4-(trifluoromethyl)phenyl)cyclobutoxy)-1H-indol-3-yl)isoxazole-4-carboxamide]
EC50: 40 to 200 nM

O=C(Nc1c[nH]c2ccc(O[C@H]3C[C@H](c4ccc(C(F)(F)F)cc4)C3)cc12)C1CC12CCC2 (stereo partly drawn) [Compound 230, N-{5-[(1R,3R)-3-[4-(trifluoromethyl)phenyl]cyclobutoxy]-1H-indol-3-yl}spiro[2.3]hexane-1-carboxamide]
EC50: 40 to 200 nM

O=C(Nc1c[nH]c2ccc(OCC[C@@H]3C[C@@H]4CN(CC(F)(F)F)C[C@@H]4C3)cc12)c1ccncc1 [Compound 179, N-(5-(2-((3aR,5r,6aS)-2-(2,2,2-trifluoroethyl)octahydrocyclopenta[c]pyrrol-5-yl)ethoxy)-1H-indol-3-yl)isonicotinamide]
EC50: 200 to 1000 nM

O=C(Nc1c[nH]c2ccc(O[C@H]3C[C@H](c4ccc(C(F)(F)F)cc4)C3)cc12)c1ccn[nH]1 [Compound 226, N-{5-[(1R,3R)-3-[4-(trifluoromethyl)phenyl]cyclobutoxy]-1H-indol-3-yl}-1H-pyrazole-5-carboxamide]
EC50: 40 to 200 nM

Cc1oncc1C(=O)Nc1c[nH]c2ccc(O[C@H]3C[C@H](c4ccc(C(F)(F)F)cc4)C3)cc12 [Compound 233, 5-methyl-N-{5-[(1R,3R)-3-[4-(trifluoromethyl)phenyl]cyclobutoxy]-1H-indol-3-yl}-1,2-oxazole-4-carboxamide]
EC50: 5000 to 100000 nM
